Consider two molecules from patent publication US5534498A, “Trypsin inhibitors” (Corvas International, Inc., priority 1993, dated 1996).

Holding throughout (assay type): biochemical
For one experiment, the target named is T1, bovine thrombin (Bos taurus, UniProt P00735).
T1 construct: 50 μL 20 nM bovine thrombin
The experiment is described as follows: Thrombin assay (S-2238 substrate). Particulars: for IC50: 30 min preincubation, room temperature, tested 0.025-25 μM, Inact. = no inhibition at highest concentration. The method, then:
(§1) The specificity of the peptide aldehydes (8 through 12) was determined in vitro by measurement of their IC50 against other enzymes involved in hemostasis. A specific concentration of enzyme and its substrate were challenged with varying concentrations of inhibitor. IC50 is that concentration of inhibitor giving 50% inhibition of substrate turnover, under the assay conditions. Specific assay procedures used are presented below.
(§2) 96-well microtiter plates were prepared for use in these assays by incubating each well with 300 μL 1% bovine serum albumin (in deionized water) for 30 minutes at 37° C., then washing three times with deionized water.
Enzyme activity was determined using as substrate, S-2238 [D-phenylalanyl-L-pipecolyl-L-arginine-p-nitroanilide dihydrochloride], purchased from Kabi Diagnostica. The substrate was made up in deionized water prior to use.
The assay was run by combining in appropriate wells 50 μL TBS and 50 μL inhibitor in TBS or TBS alone and 50 μL 20 nM bovine thrombin (or TBS as background control), incubating this mixture for 30 minutes at room temperature, adding 50 μL 1 mM S-2238, incubating for an additional 30 minutes at room temperature, then reading the absorbance of the wells at 405 nm on a microtiter plate reader set with background substraction at 650 nm.

The target of a further experiment is T2, human Factor Xa (Homo sapiens, UniProt P00742).
T2 construct: 50 μL 30 nM human Factor Xa
T2 sequence (P00742 235-488 limits assumed): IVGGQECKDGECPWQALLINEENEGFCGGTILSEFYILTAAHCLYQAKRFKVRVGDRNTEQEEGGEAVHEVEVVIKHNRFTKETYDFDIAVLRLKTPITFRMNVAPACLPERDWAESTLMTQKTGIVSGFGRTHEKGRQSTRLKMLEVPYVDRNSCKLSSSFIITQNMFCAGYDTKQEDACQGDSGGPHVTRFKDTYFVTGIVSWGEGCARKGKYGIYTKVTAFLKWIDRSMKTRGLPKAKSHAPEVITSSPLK
T2 sequence (P00742 41-179 partner limits assumed): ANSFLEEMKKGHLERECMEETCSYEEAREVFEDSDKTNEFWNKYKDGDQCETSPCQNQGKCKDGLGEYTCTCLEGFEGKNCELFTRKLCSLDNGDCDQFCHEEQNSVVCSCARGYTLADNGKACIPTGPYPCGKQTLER
The experiment is described as follows: Factor Xa assay (Pefachrome Xa substrate). Particulars: for IC50: 30 min preincubation, room temperature, tested 0.025-25 μM, Inact. = no inhibition at highest concentration. The protocol: (§3) The specificity of the peptide aldehydes (8 through 12) was determined in vitro by measurement of their IC50 against other enzymes involved in hemostasis. A specific concentration of enzyme and its substrate were challenged with varying concentrations of inhibitor. […] Specific assay procedures used are presented below.
as §2
Enzyme activity was determined using as substrate, Pefachrome Xa [N-methoxycarbonyl-D-cyclohexylalanyl-L-glycyl-L-arginine p-niroanilide acetate], purchased from Centerchem, Inc. The substrate was made up in deionized water prior to use.

The target in experiment [1] is T3, Activated human Protein C (Homo sapiens, UniProt P04070).
T3 construct: from tissue
T3 sequence (P04070 212-461 limits assumed): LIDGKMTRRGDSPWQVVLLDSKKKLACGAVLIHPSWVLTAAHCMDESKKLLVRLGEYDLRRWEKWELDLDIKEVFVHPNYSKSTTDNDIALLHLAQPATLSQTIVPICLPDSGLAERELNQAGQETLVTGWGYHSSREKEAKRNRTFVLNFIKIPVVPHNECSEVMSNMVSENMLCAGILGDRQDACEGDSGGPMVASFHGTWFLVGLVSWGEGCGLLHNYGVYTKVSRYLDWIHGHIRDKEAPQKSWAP
T3 sequence (P04070 43-197 partner limits assumed): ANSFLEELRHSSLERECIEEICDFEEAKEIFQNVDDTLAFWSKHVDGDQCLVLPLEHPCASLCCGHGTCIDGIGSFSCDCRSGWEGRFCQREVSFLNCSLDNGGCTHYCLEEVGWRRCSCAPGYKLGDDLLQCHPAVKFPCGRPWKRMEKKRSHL
The experiment in a line: Protein C assay (Pefachrome PC substrate). The note with it: for IC50: 30 min preincubation, room temperature, tested 0.025-25 μM, Inact. = no inhibition at highest concentration. The protocol: as §3, §2
Enzyme activity was determined using as substrate, Pefachrome PC [δ-carbobenzoloxy-D-lysyl-L-prolyl-L-arginine-p-nitroanilide], purchased from Centerchem, Inc. The substrate was made up in deionized water prior to use. Protac used to activate Protein C was obtained from American Diagnostics.

A further experiment concerns the target T4, human Factor XIa (Homo sapiens, UniProt P03951).
T4 construct: 50 μL of 5 nM human Factor XIa
The experiment in a line: Factor XIa assay (S-2366 substrate). Particulars: for IC50: 30 min preincubation, room temperature, tested 0.025-25 μM, Inact. = no inhibition at highest concentration. The protocol:
as §3, §2
(§4) The substrate was made up in deionized water prior to use.

For a further experiment, the target named is plasmin (Homo sapiens, UniProt P00747). The experiment is described as follows: Plasmin assay (S-2251 substrate). Set-up: 50 μL 25 nM human plasmin. The note with it: for IC50: 30 min preincubation, room temperature, tested 0.025-25 μM, Inact. = no inhibition at highest concentration. The protocol: as §3, §2, §4
Chain of plasmin (P00747 581-810 limits assumed): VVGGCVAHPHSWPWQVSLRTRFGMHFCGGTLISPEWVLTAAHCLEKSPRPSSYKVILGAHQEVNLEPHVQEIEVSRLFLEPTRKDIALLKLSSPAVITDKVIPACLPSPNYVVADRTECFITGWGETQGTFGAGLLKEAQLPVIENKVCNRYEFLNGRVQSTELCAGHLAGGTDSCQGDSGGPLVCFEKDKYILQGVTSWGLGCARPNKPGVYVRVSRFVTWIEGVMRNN
Chain of plasmin (P00747 97-580 partner limits assumed): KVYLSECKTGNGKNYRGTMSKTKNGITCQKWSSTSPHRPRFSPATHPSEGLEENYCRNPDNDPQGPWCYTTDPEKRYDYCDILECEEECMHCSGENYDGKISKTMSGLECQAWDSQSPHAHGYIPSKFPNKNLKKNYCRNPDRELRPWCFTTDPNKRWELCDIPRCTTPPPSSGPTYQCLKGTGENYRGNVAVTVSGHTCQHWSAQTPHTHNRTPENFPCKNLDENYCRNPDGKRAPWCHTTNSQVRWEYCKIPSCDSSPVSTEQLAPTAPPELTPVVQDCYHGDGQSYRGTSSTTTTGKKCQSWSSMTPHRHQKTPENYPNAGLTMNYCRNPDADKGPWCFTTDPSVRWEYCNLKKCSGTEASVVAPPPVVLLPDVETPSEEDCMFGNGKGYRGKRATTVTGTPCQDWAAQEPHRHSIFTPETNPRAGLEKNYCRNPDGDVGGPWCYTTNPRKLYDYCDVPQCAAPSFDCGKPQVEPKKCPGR
A further experiment deals with T5, Factor VIIa:rTF complex (Homo sapiens, UniProt P08709).
T5 construct: 2.5 ml 400 nMhuman Factor VIIa
T5 sequence (P08709 213-466 limits assumed): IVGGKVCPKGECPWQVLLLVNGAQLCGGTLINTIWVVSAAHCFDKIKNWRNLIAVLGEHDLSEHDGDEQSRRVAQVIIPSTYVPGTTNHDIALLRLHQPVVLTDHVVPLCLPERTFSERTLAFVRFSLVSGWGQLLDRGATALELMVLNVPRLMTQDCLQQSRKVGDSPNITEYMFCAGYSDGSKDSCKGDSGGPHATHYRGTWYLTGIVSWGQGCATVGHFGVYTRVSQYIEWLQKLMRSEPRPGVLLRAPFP
T5 sequence (P08709 61-212 partner limits assumed): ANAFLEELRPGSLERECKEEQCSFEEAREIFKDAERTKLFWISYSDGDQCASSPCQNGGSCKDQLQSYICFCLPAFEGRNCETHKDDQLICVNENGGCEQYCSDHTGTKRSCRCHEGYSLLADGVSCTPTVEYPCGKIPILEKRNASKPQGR
T5 sequence (P13726 33-295 partner): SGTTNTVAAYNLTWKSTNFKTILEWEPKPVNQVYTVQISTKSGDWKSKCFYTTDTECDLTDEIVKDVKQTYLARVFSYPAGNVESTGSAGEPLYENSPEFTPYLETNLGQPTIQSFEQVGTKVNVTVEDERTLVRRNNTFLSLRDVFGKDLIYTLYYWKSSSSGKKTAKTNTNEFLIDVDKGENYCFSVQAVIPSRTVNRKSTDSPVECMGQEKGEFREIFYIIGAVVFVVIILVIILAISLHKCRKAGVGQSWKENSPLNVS
The experiment in a line: Factor VIIa assay (S-2288 substrate). The protocol: as §1, §2
Enzyme activity was determined using as substrate, S-2288 [D-isoleucyl-L-prolyl-L-arginine-p-nitroanilide dihydrochloride], purchased from Kabi Diagnostica. The substrate was made up in deionized water prior to use.
Both solutions were then incubated for 30 minutes at room temperature before use in the assay.
The assay was run by combining in appropriate wells 50 μL inhibitor in TBS or TBS alone and 100 μL of Factor VIIa:rTF complex or background control, incubating this mixture for 30 minutes at room temperature, adding 50 μL of 2 mM S-2288, incubating for an additional 30 to 60 minutes at room temperature, then reading the absorbance of the wells at 405 nm on a microtiter plate reader set with background substraction at 650 nm.

Another experiment has as its target T6, human kallekrein (Homo sapiens, UniProt P03952).
T6 construct: 50 μL of 4 to 9 nM human kallekrein
The experiment in a line: Kallikrein assay (S-2302 substrate). Particulars: for IC50: 30 min preincubation, room temperature, tested 0.025-25 μM, Inact. = no inhibition at highest concentration. The method, then:
as §3, §2, §4

Experiment [2] has as its target recombinant tissue plasminogen activator (Homo sapiens, UniProt P00750). The experiment is described as follows: Tissue plasminogen activator assay (S-2288 substrate). The method, then: as §3, §2, §4
The target of a further experiment is T7, bovine trypsin (Bos taurus, UniProt P00760).
T7 sequence (P00760 24-246): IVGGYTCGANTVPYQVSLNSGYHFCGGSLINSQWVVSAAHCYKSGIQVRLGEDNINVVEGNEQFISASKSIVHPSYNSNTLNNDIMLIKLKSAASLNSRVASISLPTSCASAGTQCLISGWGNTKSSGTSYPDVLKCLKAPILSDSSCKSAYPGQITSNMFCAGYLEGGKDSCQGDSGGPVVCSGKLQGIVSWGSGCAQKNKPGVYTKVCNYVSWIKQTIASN
The experiment is described as follows: Trypsin assay, IC50 (S-2222 substrate). The note with it: for IC50: 30 min preincubation, room temperature, tested 0.025-25 μM. The protocol:
as §3, §2, §4

A further experiment concerns the target T8, human urokinase (Homo sapiens, UniProt P00749).
T8 construct: 50 μL of 270 U/mL human urokinase
The experiment in a line: Urokinase assay (S-2444 substrate). The method, then:
as §1, §2
Enzyme activity was determined using as substrate S-2444 [L-pyroglutamyl-L-glycyl-L-arginine-p-nitroanilide hydrochloride], purchased from Kabi Diagnostica. The substrate was made up in deionized water prior to use.
The assay was run by combining in appropriate wells 50 μL inhibitor in TBS or TBS alone and 50 μL of 270 U/mL human urokinase (or TBS as background control) and 50 μL TBS, incubating this mixture for 30 minutes at room temperature, adding 50 μL 1 mM S-2444, incubating for an additional 30 minutes at room temperature, then reading the absorbance of the wells at 405 nm on a microtiter plate reader set with background substraction at 650 nm.

The mark [3] stands for this setting: [IC50 for Trypsin/IC50 for other enzyme]×100, lower = more trypsin selective.
Setting [4] is: 30 min preincubation, room temperature, tested 0.025-25 μM, Inact. = no inhibition at highest concentration.

Chain of recombinant tissue plasminogen activator (P00750 36-562): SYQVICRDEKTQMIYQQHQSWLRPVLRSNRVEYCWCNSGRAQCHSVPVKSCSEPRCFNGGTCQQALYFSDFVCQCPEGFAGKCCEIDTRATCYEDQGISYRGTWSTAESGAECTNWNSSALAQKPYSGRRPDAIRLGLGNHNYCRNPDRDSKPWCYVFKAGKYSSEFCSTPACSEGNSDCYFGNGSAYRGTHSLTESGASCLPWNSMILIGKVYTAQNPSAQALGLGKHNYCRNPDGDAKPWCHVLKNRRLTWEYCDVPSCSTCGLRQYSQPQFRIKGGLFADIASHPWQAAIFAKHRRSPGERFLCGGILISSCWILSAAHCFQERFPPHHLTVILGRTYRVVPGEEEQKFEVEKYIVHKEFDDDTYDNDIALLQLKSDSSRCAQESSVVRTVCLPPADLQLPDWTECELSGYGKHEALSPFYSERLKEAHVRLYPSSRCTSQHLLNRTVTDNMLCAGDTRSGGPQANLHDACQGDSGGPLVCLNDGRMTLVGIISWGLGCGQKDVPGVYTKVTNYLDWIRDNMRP
T4 sequence (P03951 388-625 limits assumed): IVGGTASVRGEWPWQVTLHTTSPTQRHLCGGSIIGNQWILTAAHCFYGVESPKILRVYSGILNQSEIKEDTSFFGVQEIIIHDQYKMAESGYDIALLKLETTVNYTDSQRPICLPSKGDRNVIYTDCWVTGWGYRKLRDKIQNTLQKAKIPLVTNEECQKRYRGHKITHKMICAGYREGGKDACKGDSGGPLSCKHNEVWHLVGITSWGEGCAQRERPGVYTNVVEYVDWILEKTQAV
T4 sequence (P03951 19-387 partner limits assumed): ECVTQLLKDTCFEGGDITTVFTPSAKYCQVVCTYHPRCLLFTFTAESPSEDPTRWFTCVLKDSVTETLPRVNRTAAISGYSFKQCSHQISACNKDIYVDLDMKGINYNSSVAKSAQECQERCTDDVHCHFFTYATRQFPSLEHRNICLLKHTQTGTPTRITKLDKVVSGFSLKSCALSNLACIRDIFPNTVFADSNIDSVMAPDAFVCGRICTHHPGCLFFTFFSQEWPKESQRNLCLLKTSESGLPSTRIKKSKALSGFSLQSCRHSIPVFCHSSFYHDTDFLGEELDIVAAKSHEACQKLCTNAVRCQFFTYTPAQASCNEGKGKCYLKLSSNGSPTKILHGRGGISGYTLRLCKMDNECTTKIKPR
T6 sequence (P03952 391-638 limits assumed): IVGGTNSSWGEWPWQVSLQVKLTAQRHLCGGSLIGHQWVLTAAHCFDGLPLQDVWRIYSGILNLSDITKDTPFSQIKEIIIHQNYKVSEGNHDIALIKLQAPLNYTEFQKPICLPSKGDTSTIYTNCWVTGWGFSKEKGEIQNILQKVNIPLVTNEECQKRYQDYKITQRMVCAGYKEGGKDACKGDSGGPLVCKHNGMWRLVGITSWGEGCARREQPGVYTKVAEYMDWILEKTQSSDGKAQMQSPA
T6 sequence (P03952 20-390 partner limits assumed): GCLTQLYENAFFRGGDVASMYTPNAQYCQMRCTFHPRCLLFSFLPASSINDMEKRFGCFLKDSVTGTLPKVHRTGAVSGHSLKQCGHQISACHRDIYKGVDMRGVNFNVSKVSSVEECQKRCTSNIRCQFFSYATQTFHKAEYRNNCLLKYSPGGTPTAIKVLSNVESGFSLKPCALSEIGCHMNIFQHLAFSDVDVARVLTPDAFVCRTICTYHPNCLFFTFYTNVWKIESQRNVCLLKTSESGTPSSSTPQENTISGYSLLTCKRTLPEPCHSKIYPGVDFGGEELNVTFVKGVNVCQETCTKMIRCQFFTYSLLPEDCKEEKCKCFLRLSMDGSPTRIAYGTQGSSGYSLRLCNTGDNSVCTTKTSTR

A word on the IC50: it is the concentration needed to halve the response being measured. On to `CC(C)COC(=O)NC(CC(=O)O)C(=O)N1CCCC1C(=O)NC(C=O)CCCN=C(N)N` [Compound 10, N-isobutyloxycarbonyl-L-Asp-L-Pro-L-argininal], for which the IC50 on bovine thrombin is 9 µM; against human Factor Xa, 2 µM; in [1] it was greater than 25 µM; at human Factor XIa, 13 µM; against plasmin, 1.2 µM; against human kallekrein it was 8 µM. Moreover, the figures for the IC50 (in experiment [2] (setting [4]); against bovine trypsin; against human urokinase (setting [4])) were greater than 25 µM, less than 0.025 µM and greater than 25 µM, respectively. The “Calculated % Selectivity Thrombin” value at bovine thrombin (setting [3]) is less than 0.28%. At human Factor Xa (setting [3]), the “Calculated % Selectivity Xa” value is given as less than 1.3%. Moreover, the “Calculated % Selectivity Protein C” value in experiment [1] (setting [3]) is reported as less than 0.1%. In addition, at human Factor XIa (setting [3]), the “Calculated % Selectivity XIa” value is less than 0.19%. Moreover, at plasmin (setting [3]), the “Calculated % Selectivity Plasmin” value was less than 2%. The “IC50 VIIA” value against Factor VIIa:rTF complex (setting [4]) is listed as “Inact”. Further, the “Calculated % Selectivity VIIa” value at Factor VIIa:rTF complex (setting [3]) is recorded as 0%. Further, the “Calculated % Selectivity Kallikrein” value at human kallekrein (setting [3]) is on record as less than 0.3%. Also, the “Calculated % Selectivity tPA” value in [2] (setting [3]) is on record as less than 0.1%. Further, the “Calculated % Selectivity Trypsin” value on bovine trypsin (trypsin relative to itself (reference, 100 by definition)) was 100%. Further, at human urokinase (setting [3]), the “Calculated % Selectivity UK” value is less than 0.1%.
For the molecule `CC(=O)N[C@@H](CC(C)C)C(=O)N[C@@H](CC(C)C)C(=O)N[C@H](C=O)CCCNC(=N)N` [Leupeptin, reference compound], the IC50 is 20 µM against bovine thrombin; 25 µM against human Factor Xa; greater than 25 µM in experiment [1]; 11 µM against human Factor XIa; 8 µM at plasmin; greater than 25 µM at Factor VIIa:rTF complex (setting [4]). Further, the figures for the IC50 against human kallekrein and on bovine trypsin were 4 µM and 1.7 µM, respectively. The “IC50 tPA” value in experiment [2] (setting [4]) was “Inact”. Also, the “IC50 UK” value against human urokinase (setting [4]) is “Inact”.
